Experimental findings from paper PMC6625793, “The autophagic membrane tether ATG2A transfers lipids between membranes” (eLife, 2019) are described below.

What all share (format): binding
One assay addresses T1, ATG2A (Homo sapiens, UniProt Q2TAZ0).
T1 construct: full-length (1938 residues); N-terminal GST cleaved by TEV, C-terminal TwinStrepII tag kept; expressed in Sf9 insect cells
Put plainly: lipid extraction from LUVs, Nycodenz flotation, native PAGE fluorescence. Particulars: 20 mM HEPES pH 7.5, 150 mM NaCl, 1 mM TCEP; ~22 °C; 20% NBD-PE/80% DOPC LUVs; labelled compound.

In a further assay the target is T2, WIPI4 (Homo sapiens, UniProt Q9Y484).
T2 construct: gene WDR45; N-terminal 10xHis tag kept in flotation assays; expressed in Sf9 insect cells
T2 sequence (Q9Y484 1-360): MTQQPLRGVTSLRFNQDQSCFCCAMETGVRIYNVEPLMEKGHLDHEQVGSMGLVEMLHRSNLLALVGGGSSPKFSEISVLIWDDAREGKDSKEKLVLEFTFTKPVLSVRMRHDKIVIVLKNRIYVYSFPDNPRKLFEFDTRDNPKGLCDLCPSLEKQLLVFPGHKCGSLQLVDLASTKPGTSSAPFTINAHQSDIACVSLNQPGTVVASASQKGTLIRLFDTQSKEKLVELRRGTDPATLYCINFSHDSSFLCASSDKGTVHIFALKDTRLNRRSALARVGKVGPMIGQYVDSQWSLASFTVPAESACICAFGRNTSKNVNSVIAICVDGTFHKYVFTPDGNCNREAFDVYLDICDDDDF
Kind of assay: liposome flotation, western blot. Conditions: 20 mM HEPES pH 7.5, 150 mM NaCl, 1 mM TCEP; LUVs with 5% PI3P versus without PI3P. (A western blot detects proteins with antibodies after separation by electrophoresis.)

A further assay deals with T3, WIPI1 (Homo sapiens, UniProt Q5MNZ9).
T3 construct: residues 1-446; N-terminal 6xHis tag kept in flotation assays; expressed in Sf9 insect cells
T3 sequence (Q5MNZ9 1-446): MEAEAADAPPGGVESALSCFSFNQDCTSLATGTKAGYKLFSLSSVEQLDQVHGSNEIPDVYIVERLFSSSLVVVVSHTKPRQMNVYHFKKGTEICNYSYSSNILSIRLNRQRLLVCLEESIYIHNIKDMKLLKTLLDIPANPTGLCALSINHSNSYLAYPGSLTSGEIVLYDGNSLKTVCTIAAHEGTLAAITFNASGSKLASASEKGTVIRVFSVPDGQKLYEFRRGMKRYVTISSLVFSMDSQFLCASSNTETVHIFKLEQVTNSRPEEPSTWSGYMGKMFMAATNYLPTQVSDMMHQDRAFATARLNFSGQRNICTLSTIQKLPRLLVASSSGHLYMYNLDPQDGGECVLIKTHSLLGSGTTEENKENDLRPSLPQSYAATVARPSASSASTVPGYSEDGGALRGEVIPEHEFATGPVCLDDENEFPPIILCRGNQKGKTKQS
Put plainly: liposome flotation, western blot. Conditions: 20 mM HEPES pH 7.5, 150 mM NaCl, 1 mM TCEP; LUVs with 5% PI3P versus without PI3P.

T1 sequence (Q2TAZ0 whole entry): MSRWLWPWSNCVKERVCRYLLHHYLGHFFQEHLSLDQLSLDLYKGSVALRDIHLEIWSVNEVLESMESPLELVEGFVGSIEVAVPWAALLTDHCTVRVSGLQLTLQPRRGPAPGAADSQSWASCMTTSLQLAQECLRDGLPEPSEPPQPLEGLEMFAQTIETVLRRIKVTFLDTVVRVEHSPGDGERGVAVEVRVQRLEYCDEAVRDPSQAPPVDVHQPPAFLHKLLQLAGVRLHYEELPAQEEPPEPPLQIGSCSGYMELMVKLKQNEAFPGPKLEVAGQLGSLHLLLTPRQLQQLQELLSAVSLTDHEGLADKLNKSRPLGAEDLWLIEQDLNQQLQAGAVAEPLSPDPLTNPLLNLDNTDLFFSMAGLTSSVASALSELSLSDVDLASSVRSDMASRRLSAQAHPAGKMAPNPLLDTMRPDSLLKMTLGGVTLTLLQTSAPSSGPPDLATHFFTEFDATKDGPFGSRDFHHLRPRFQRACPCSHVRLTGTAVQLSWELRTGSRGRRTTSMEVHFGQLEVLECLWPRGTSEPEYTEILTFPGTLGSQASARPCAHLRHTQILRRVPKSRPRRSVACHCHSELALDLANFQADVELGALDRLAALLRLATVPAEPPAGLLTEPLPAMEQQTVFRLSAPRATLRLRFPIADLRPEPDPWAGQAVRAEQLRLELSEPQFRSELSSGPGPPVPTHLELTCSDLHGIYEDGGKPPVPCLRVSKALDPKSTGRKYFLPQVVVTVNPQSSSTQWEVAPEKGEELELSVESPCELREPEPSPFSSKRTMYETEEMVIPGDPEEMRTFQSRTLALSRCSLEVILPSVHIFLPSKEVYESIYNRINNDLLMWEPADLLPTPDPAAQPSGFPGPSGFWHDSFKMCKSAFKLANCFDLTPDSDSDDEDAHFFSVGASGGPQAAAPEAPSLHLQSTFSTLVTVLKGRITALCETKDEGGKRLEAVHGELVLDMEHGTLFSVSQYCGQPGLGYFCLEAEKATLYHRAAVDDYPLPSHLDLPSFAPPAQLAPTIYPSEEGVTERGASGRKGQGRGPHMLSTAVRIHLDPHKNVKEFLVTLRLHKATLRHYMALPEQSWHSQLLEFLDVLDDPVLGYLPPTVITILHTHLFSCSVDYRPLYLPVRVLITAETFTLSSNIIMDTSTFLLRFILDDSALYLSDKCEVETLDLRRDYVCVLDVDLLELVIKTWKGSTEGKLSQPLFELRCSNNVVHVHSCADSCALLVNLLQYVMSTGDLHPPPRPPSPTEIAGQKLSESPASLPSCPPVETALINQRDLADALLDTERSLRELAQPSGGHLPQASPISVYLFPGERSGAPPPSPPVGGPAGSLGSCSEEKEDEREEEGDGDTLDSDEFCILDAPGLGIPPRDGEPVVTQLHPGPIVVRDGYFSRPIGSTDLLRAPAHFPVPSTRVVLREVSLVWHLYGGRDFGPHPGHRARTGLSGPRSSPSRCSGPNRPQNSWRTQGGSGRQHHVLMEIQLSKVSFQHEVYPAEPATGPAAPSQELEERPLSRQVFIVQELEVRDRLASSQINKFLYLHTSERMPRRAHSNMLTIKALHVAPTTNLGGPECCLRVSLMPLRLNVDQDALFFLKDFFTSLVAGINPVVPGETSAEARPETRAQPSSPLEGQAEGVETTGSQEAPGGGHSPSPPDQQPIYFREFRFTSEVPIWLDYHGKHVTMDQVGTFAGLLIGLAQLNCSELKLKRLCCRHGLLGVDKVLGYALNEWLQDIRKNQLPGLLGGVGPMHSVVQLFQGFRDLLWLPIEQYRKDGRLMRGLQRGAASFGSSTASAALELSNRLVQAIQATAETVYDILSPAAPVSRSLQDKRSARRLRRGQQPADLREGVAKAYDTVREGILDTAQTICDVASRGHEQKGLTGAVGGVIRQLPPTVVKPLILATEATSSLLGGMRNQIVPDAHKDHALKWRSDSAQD

`CCCCCCCC/C=C\CCCCCCCC(=O)OC[C@H](COP(=O)(O)OCCNc1ccc([N+](=O)[O-])c2nonc12)OC(=O)CCCCCCC/C=C\CCCCCCCC` [NBD-PE, 1,2-dioleoyl-sn-glycero-3-phosphoethanolamine-N-(7-nitro-2–1,3-benzoxadiazol-4-yl)]: the “lipid extraction from LUVs, Nycodenz flotation, native PAGE fluorescence” value at ATG2A was “ATG2A can extract NBD-PE from membranes and dissociate from the membrane with those lipids attached”.

For `CCCCCCCC/C=C\CCCCCCCC(=O)OC[C@H](COP(=O)(O)O[C@@H]1[C@H](O)[C@H](OP(=O)(O)O)[C@@H](O)[C@H](O)[C@H]1O)OC(=O)CCCCCCC/C=C\CCCCCCCC` [PI3P], the “liposome flotation, western blot” value on WIPI4 and at WIPI1 was “both WIPIs bind to membranes in a PI3P-dependent manner” throughout.
